Earlier results in US20170001953A1, “FUMARATE COMPOUNDS, PHARMACEUTICAL COMPOSITIONS THEREOF, AND METHODS OF USE” (priority 2015, published 2017).

SMILES: COC(=O)/C=C/C(=O)OC [DMF, dimethylfumarate]
- aqueous solubility: poor
